# Data published in PubChem BioAssay AID248 (DTP/NCI, 2004).
# Values joined by “and” are separate entries in the source; they are usually repeats but may differ in a detail not shown here. Equal values may be shown once. Toxic doses and inconclusive results are not listed.
# Tested on: L1210 leukemia ip in BDF1 mice, survival T/C
# Assay: NCI In Vivo Anticancer Drug Screen. Data for tumor model L1210 Leukemia (intraperitoneal) in B6D2F1 (BDF1) mice
# Conditions: endpoint: mean survival time, higher = longer survival
# Procedure, shortened: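 In this screen, tumor-bearing mice given compound are compared to those given vehicle, and their survival values are reported as a treated-to-control quotient.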
# [1] = dose: 100.0 mg/kg/injection, schedule: Q01DX009 (ip), vehicle: saline with Tween-80
# [2] = dose: 100.0 mg/kg/injection, schedule: Q04DX002 (ip), vehicle: Klucel (hydroxypropylcellulose) (HPC)
# [3] = dose: 200.0 mg/kg/injection, schedule: Q01DX009 (ip), vehicle: saline with Tween-80
# [4] = dose: 200.0 mg/kg/injection, schedule: Q04DX002 (ip), vehicle: Klucel (hydroxypropylcellulose) (HPC)
# [5] = dose: 400.0 mg/kg/injection, schedule: Q04DX002 (ip), vehicle: Klucel (hydroxypropylcellulose) (HPC)
# [6] = dose: 100.0 mg/kg/injection, schedule: Q01DX009 (ip), vehicle: Klucel (hydroxypropylcellulose) (HPC)
# [7] = dose: 100.0 mg/kg/injection, schedule: Q04DX003 (ip), vehicle: Klucel (hydroxypropylcellulose) (HPC)
# [8] = dose: 200.0 mg/kg/injection, schedule: Q01DX009 (ip), vehicle: Klucel (hydroxypropylcellulose) (HPC)
# [9] = dose: 200.0 mg/kg/injection, schedule: Q04DX003 (ip), vehicle: Klucel (hydroxypropylcellulose) (HPC)
# [10] = dose: 400.0 mg/kg/injection, schedule: Q01DX009 (ip), vehicle: Klucel (hydroxypropylcellulose) (HPC)
# [11] = dose: 400.0 mg/kg/injection, schedule: Q04DX003 (ip), vehicle: Klucel (hydroxypropylcellulose) (HPC)
# [12] = dose: 100.0 mg/kg/injection, schedule: Q04DX003 (ip), vehicle: saline with Tween-80
# [13] = dose: 200.0 mg/kg/injection, schedule: Q04DX003 (ip), vehicle: saline with Tween-80
# [14] = dose: 400.0 mg/kg/injection, schedule: Q04DX003 (ip), vehicle: saline with Tween-80
smiles,measurement,setting,value
CCCC/C(CC)=N\N=C(/CC)CCCC,T/C,"dose: 50.0 mg/kg/injection, schedule: Q04DX002 (ip), vehicle: saline",91 % of control
same,T/C,"dose: 100.0 mg/kg/injection, schedule: Q04DX002 (ip), vehicle: saline",102 % of control
same,T/C,"dose: 200.0 mg/kg/injection, schedule: Q04DX002 (ip), vehicle: saline",88 % of control
same,T/C,"dose: 400.0 mg/kg/injection, schedule: Q04DX002 (ip), vehicle: saline",96 % of control
O=C1c2ccccc2C(=O)N1CCOCCOCCOCCN1C(=O)c2ccccc2C1=O,T/C,"dose: 50.0 mg/kg/injection, schedule: Q01DX009 (ip), vehicle: saline with Tween-80",97 % of control
same,T/C,[1],91 % of control
same,T/C,[2],102 % of control
same,T/C,[3],94 % of control
same,T/C,[4],94 % of control
same,T/C,[5],102 % of control
CN(C)C(=O)C1(c2ccc(Cl)cc2)CCN(CCCC(=O)c2ccc(F)cc2)CC1,T/C,"dose: 12.5 mg/kg/injection, schedule: Q01DX009 (ip), vehicle: Klucel (hydroxypropylcellulose) (HPC)",94 % of control
same,T/C,"dose: 25.0 mg/kg/injection, schedule: Q01DX009 (ip), vehicle: Klucel (hydroxypropylcellulose) (HPC)",94 % of control
same,T/C,"dose: 25.0 mg/kg/injection, schedule: Q04DX003 (ip), vehicle: Klucel (hydroxypropylcellulose) (HPC)",121 % of control
same,T/C,"dose: 50.0 mg/kg/injection, schedule: Q01DX009 (ip), vehicle: Klucel (hydroxypropylcellulose) (HPC)",100 % of control
same,T/C,"dose: 50.0 mg/kg/injection, schedule: Q04DX003 (ip), vehicle: Klucel (hydroxypropylcellulose) (HPC)",106 % of control
same,T/C,[6],111 % of control
same,T/C,[7],116 % of control
same,T/C,[8],96 % of control
same,T/C,[9],116 % of control
CC1(CC(=O)O)CCc2ccccc2C1=O (stereo not drawn),T/C,[6],98 % of control
same,T/C,[7],98 % of control
same,T/C,[8],94 % of control
same,T/C,[9],96 % of control
same,T/C,[10],100 % of control
same,T/C,[11],102 % of control
C=CCNC(=S)Nc1ccc(OC(=O)Nc2ccc(Cl)c(Cl)c2)cc1,T/C,"dose: 100.0 mg/kg/injection, schedule: Q04DX002 (ip), vehicle: saline with Tween-80",102 % of control
same,T/C,"dose: 200.0 mg/kg/injection, schedule: Q04DX002 (ip), vehicle: saline with Tween-80",97 % of control
same,T/C,"dose: 400.0 mg/kg/injection, schedule: Q04DX002 (ip), vehicle: saline with Tween-80",105 % of control
C[Si](C)(C)Oc1ccccc1[Si](C)(C)c1ccccc1,T/C,[7],101 % of control
same,T/C,[9],98 % of control
same,T/C,[11],102 % of control
COC(=O)/C=C/c1ccc(Cl)cc1,T/C,[6],98 % of control
same,T/C,[8],96 % of control
same,T/C,[10],96 % of control
O=C1c2cccc3c([N+](=O)[O-])ccc(c23)C(=O)N1NCCO,T/C,"dose: 100.0 mg/kg/injection, schedule: Q04DX003 (ip), vehicle: carboxymethylcellulose (CMC)",102 % of control
same,T/C,"dose: 200.0 mg/kg/injection, schedule: Q04DX003 (ip), vehicle: carboxymethylcellulose (CMC)",100 % of control
O=C(O)C(C(=O)O)C1Cc2cccc3cccc1c23 (stereo not drawn),T/C,"dose: 25.0 mg/kg/injection, schedule: Q04DX003 (ip), vehicle: saline with Tween-80",96 % of control
same,T/C,"dose: 50.0 mg/kg/injection, schedule: Q04DX003 (ip), vehicle: saline with Tween-80",98 % of control
same,T/C,[12],100 % of control
Cc1cc(/C=N\N=C(N)N)c(C)n1-c1ccccc1,T/C,"dose: 15.0 mg/kg/injection, schedule: Q01DX Z (ip), vehicle: carboxymethylcellulose (CMC)",92 % of control
same,T/C,"dose: 30.0 mg/kg/injection, schedule: Q01DX Z (ip), vehicle: carboxymethylcellulose (CMC)",95 % of control
same,T/C,"dose: 60.0 mg/kg/injection, schedule: Q01DX Z (ip), vehicle: carboxymethylcellulose (CMC)",89 % of control
same,T/C,"dose: 60.0 mg/kg/injection, schedule: Q01DX Z (oral), vehicle: carboxymethylcellulose (CMC)",106 % of control
same,T/C,"dose: 120.0 mg/kg/injection, schedule: Q01DX Z (ip), vehicle: carboxymethylcellulose (CMC)",97 % of control
same,T/C,"dose: 120.0 mg/kg/injection, schedule: Q01DX Z (oral), vehicle: carboxymethylcellulose (CMC)",101 % of control
same,T/C,"dose: 240.0 mg/kg/injection, schedule: Q01DX Z (oral), vehicle: carboxymethylcellulose (CMC)",95 % of control and 100 % of control
same,T/C,"dose: 480.0 mg/kg/injection, schedule: Q01DX Z (oral), vehicle: carboxymethylcellulose (CMC)",95 % of control and 102 % of control
same,T/C,"dose: 960.0 mg/kg/injection, schedule: Q01DX Z (oral), vehicle: carboxymethylcellulose (CMC)",103 % of control
same,T/C,"dose: 1920.0 mg/kg/injection, schedule: Q01DX Z (oral), vehicle: carboxymethylcellulose (CMC)",107 % of control
COC(=O)/C=C/C(Oc1ccc(C)cc1)C(=O)OC (stereo not drawn),T/C,"dose: 75.0 mg/kg/injection, schedule: Q04DX003 (ip), vehicle: other",98 % of control
same,T/C,"dose: 150.0 mg/kg/injection, schedule: Q04DX003 (ip), vehicle: other",96 % of control
same,T/C,"dose: 300.0 mg/kg/injection, schedule: Q04DX003 (ip), vehicle: other",98 % of control
COc1cc(OC)c(N=Cc2ccc3c(c2)OCO3)cc1Cl,T/C,[6],91 % of control
same,T/C,[8],98 % of control
same,T/C,[10],96 % of control
O=C(CI)Nc1ccc(NC(=O)CI)cc1,T/C,[7],90 % of control
same,T/C,[9],95 % of control
COc1ccc(CC(=O)NCCN(CCN(CCO)C(=O)Cc2ccc(OC)cc2)C(=O)Cc2ccc(OC)cc2)cc1,T/C,[1],95 % of control
same,T/C,[12],100 % of control
same,T/C,[3],90 % of control
same,T/C,[13],102 % of control
same,T/C,"dose: 400.0 mg/kg/injection, schedule: Q01DX009 (ip), vehicle: saline with Tween-80",91 % of control
same,T/C,[14],94 % of control
COc1ccc(OC)c(N=CC(=O)c2ccc(C)cc2)c1,T/C,"dose: 75.0 mg/kg/injection, schedule: Q04DX003 (ip), vehicle: Klucel (hydroxypropylcellulose) (HPC)",95 % of control
same,T/C,"dose: 150.0 mg/kg/injection, schedule: Q04DX003 (ip), vehicle: Klucel (hydroxypropylcellulose) (HPC)",94 % of control
same,T/C,"dose: 300.0 mg/kg/injection, schedule: Q04DX003 (ip), vehicle: Klucel (hydroxypropylcellulose) (HPC)",97 % of control
COC(=O)C1C(O)CN2CCCC12 (stereo not drawn),T/C,"dose: 100.0 mg/kg/injection, schedule: Q04DX003 (ip), vehicle: saline",93 % of control
same,T/C,"dose: 200.0 mg/kg/injection, schedule: Q04DX003 (ip), vehicle: saline",93 % of control
same,T/C,"dose: 400.0 mg/kg/injection, schedule: Q04DX003 (ip), vehicle: saline",93 % of control
O=NN(CCCl)C(=O)Nc1ccc(NC(=O)N(CCCl)N=O)cc1,T/C,"dose: 100.0 mg/kg/injection, schedule: Q01DX001 (ip), vehicle: saline",201 % of control
same,T/C,"dose: 200.0 mg/kg/injection, schedule: Q01DX001 (ip), vehicle: saline",182 % of control
same,T/C,"dose: 300.0 mg/kg/injection, schedule: Q01DX001 (ip), vehicle: saline",230 % of control
same,T/C,"dose: 400.0 mg/kg/injection, schedule: Q01DX001 (ip), vehicle: saline",264 % of control
same,T/C,"dose: 500.0 mg/kg/injection, schedule: Q01DX001 (ip), vehicle: saline",285 % of control
same,T/C,"dose: 600.0 mg/kg/injection, schedule: Q01DX001 (ip), vehicle: saline",300 % of control
same,T/C,"dose: 800.0 mg/kg/injection, schedule: Q01DX001 (ip), vehicle: saline",291 % of control
same,T/C,"dose: 1000.0 mg/kg/injection, schedule: Q01DX001 (ip), vehicle: saline",268 % of control
O=C(COc1ccc(Cl)c(Cl)c1)N(Cc1ccccc1)Cc1ccc[n+](Cc2ccc(Cl)cc2S(=O)(=O)F)c1,T/C,[2],95 % of control
same,T/C,[4],95 % of control
same,T/C,[5],104 % of control
CC1OCC(C[N+](C)(C)C)O1 (stereo not drawn),T/C,"dose: 0.09 mg/kg/injection, schedule: Q04DX002 (ip), vehicle: saline",95 % of control
same,T/C,"dose: 0.18 mg/kg/injection, schedule: Q04DX002 (ip), vehicle: saline",106 % of control
same,T/C,"dose: 0.37 mg/kg/injection, schedule: Q04DX002 (ip), vehicle: saline",95 % of control
same,T/C,"dose: 0.75 mg/kg/injection, schedule: Q04DX002 (ip), vehicle: saline",103 % of control and 109 % of control
same,T/C,"dose: 1.5 mg/kg/injection, schedule: Q04DX002 (ip), vehicle: saline",100 % of control and 106 % of control
O=C1C=C(C(Cl)(Cl)Cl)OC(=O)C1,T/C,[12],98 % of control
same,T/C,[13],98 % of control
same,T/C,[14],93 % of control
